This assay has as its system P. falciparum 3D7 growth, pLDH absorbance. The experiment in a line: P. falciparum 3D7 growth inhibition, dose response, strain 3D7 (AID 2305).

In PubChem BioAssay AID2305 (GlaxoSmithKline (GSK), 2010) one finds IC50 data, which are given here for 62 compounds.

pIC50: −log10 of the molar value. “And” between values parts separate entries of the source, which are not always exact repeats. Identical values can stand only once.

The compound `Cc1cc(NN=CC=Cc2ccccc2)c2ccc(F)cc2n1` showed a pIC50 of 6.23.
The same measure for `COc1ccc(C(C(=O)NC2CCN(C[C@H](O)c3ccnc4ccc(OC)cc34)CC2)N2CCc3ccccc3C2)cc1` (some centres not stated): 6.15.
Regarding `Cc1cc(C)c2nc(N3CCC(C(=O)NCCCN4CCC(N5CCCCC5)CC4)CC3)sc2c1`, the negative-log IC50 (pIC50) was 6.08.
In turn, `COc1ccc(-n2ccnc2SCC(=O)Nc2cccc(C(F)(F)F)c2)c(OC)c1` had a pIC50 of 6.66.
Take `CC[C@H]1CN2CCc3cc(OC)c(OC)cc3[C@@H]2C[C@@H]1C[C@H]1NCCc2c1cc(OC)c(O)c2Cl`: the pIC50 was 6.85.
To `O=[N+]([O-])c1ccc(Nc2nc(NCc3ccccc3)nc(NN=Cc3ccccc3[N+](=O)[O-])n2)cc1` belongs 6.80; to `CCN(CC)CCCNc1nccc(N(C)c2ccc(NC(=O)Nc3cc(C(F)(F)F)ccc3F)cc2)n1`, 5.98.
The same measure for `O=C1Nc2cccc3c2C1(CCCCN1CCC(c2c(-c4ccc(F)cc4)[nH]c4ccccc24)CC1)CCC3` (configuration not stated): 5.92.
As for `COc1ccccc1-n1c(SCC(=O)c2ccc3c(c2)CC(=O)N3C)nnc1-c1cccs1`, the negative logarithm of the IC50 (pIC50) is 6.02.
The compound `COc1cccc(-c2ccc3ccnc(N)c3c2)c1` gave a pIC50 of 6.39.
The same measure for `COc1ccc(NC(=O)C2c3ccccc3C(=O)N(C3CCCC3)C2c2cccs2)cc1` (configuration not stated): 5.77; for `CN(C)Cc1c(O)ccc2[nH]c(-c3ccc(F)cc3F)nc12`: 5.89.
On to `CC(C)CCNC(=O)c1cc(C(=O)c2cc(F)ccc2O)cn(CCC(C)C)c1=O`, for which the pIC50 is 6.12.
Compound `Cc1cccc(Cl)c1S(=O)(=O)N1CCCCC(c2ccc(C(F)(F)F)cc2)=N1` showed a pIC50 of 6.66.
The same measure for `Cc1cc(-c2cccc3c(NC(=O)N4CCc5cc6nccc(N7CCN8CCC[C@H]8C7)c6cc54)cccc23)cc(C)n1`: 6.31.
To `C#CCOc1ccc(CC(C)NCC(O)c2cccc(C(F)(F)F)c2)cc1` (configuration not stated) belongs 5.92 and 5.99; to `CCc1c(CCNCCCCCCNC(C)(C)Cc2ccc3c(c2CC)OCO3)ccc(OC)c1OC`, 6.03; to `CCOC(=O)C(=CNc1ccc(Cc2cnc(N)nc2N)cc1CC)C(=O)OCC`, 5.94.
`CC[C@H](C)CNC(=O)c1cccc(-c2cccc(CN3CCC(N4CCCC4)CC3)c2)n1` had a pIC50 of 6.15.
To `O=C(Nc1cc(Cl)cc(Cl)c1)c1cc(Cl)c(=O)n(Cc2cccc(Cl)c2)c1` belongs 6.12; to `COc1cc2nc(C)nc(Nc3cccc(Br)c3)c2cc1OC`, 6.44; to `O=[N+]([O-])c1ccc(C2=NN(S(=O)(=O)c3c(Cl)cc(Cl)cc3Cl)CCCC2)cc1`, 6.89.
Consider `Cc1cccc(CN2CCCN(Cc3ccc(C(=O)Nc4ccc(C)c(F)c4)cc3)CC2)c1`, for which the pIC50 was 5.97.
To `O=[N+]([O-])c1ccc2ncnc(Nc3ccc(F)c(Cl)c3)c2c1` belongs 6.15.
To `Cc1[nH]c2ccccc2c1C1=CCN(CCCCC2(C)C(=O)Nc3ccccc32)CC1` (configuration not stated) belongs 6.64; to `Cc1ncc([N+](=O)[O-])n1CCOC(=O)NC(Nc1ccc(Br)cc1)C(Cl)(Cl)Cl` (configuration not stated), 6.02; to `O=C(/C=C/c1ccc(Cl)c(Cl)c1)NCCCCCN1CCC(NC(=S)Nc2cccc(Cl)c2)CC1`, 6.06.
To `CS(=O)(=O)Nc1ccc(OCCCCCCOc2ccc(NS(C)(=O)=O)cc2)cc1` belongs 6.31; to `COc1ccc(Cn2cncc2CN(CCC(C)C)C(=O)c2ccc(Cl)nc2Cl)cc1`, 5.98; to `Cc1nc(Nc2ccc(F)cc2)nc(N2CCc3cc(O)ccc3C2C)c1C` (configuration not stated), 6.12.
As to `Cc1onc(-c2ccccc2)c1-c1nc(NC2CCCC(C)C2)no1` (configuration not stated), the pIC50 is 6.08.
To `CN1CCCc2ccc(NC(=O)c3cnc(-c4ccccc4)cn3)cc21` belongs 6.04; to `Cc1ccc(NC(=O)Cc2noc(CC3CCCN3C(=O)N[C@@H](C)c3ccccc3)n2)cc1` (some centres not stated), 6.43.
`Cc1[nH]c2ccccc2c1C1=CCN(CCCCCNC(=O)/C=C/c2ccc(Cl)c(Cl)c2)CC1` showed a pIC50 of 6.57.
With `COc1ccc(-c2cccc(NC(=O)c3cccc(Cl)c3)c2)cc1CNC(C)C`, the pIC50 was 6.14.
The same measure for `Cc1[nH]c(C)c(-c2ccc(-c3cc(C(F)(F)F)cc(C(F)(F)F)c3)nc2)c(=O)c1Br`: 7.10.
The same measure for `CC(C)(CNC(=O)[C@@H]1CCCN(CCOc2ccc(F)c(F)c2)C1)c1nc(-c2ccc(Cl)c(O)c2)c(-c2ccncc2)[nH]1`: 6.14; for `CC1(C)Cc2c([nH]c3ccccc23)C(CCCCCCCCC2=NC(C)(C)Cc3c2[nH]c2ccccc32)=N1`: 6.03.
Take `CC[C@H]1CN2CC[C@@H]1C[C@H]2[C@H](O)c1cc(-c2cccnc2)nc2ccc(OC)cc12`: the negative-log IC50 (pIC50) was 7.40.
To `CNC(=O)c1c(NC(=O)c2cccs2)sc2c1CCCC2` belongs 6.09; to `Fc1ccc2nc(-c3ccc(-c4ccc(CNCCc5ccncc5)cc4)cc3)[nH]c2c1`, 6.85; to `CC(=O)Nc1ccc(C(=O)Nc2cccc(-c3cccc(-c4nc5ccccc5[nH]4)c3)c2)cn1`, 6.70.
For the compound `CC(=O)c1ccc2nc[nH]c(=O)c2c1`, the pIC50 is 6.14.
As for `COc1ccc(-c2cnc3ccc(NCCCO)nn23)cc1OC`, the pIC50 was 6.17.
As for `CC[C@H]1CN2CC[C@@H]1C[C@H]2[C@H](O)c1cc(N2CCC(CO)CC2)nc2ccc(OC)cc12`, the pIC50 was 6.80.
To `COc1ccc(CNCc2ccc(-c3ccc(-c4nc5ccc(F)cc5[nH]4)cc3)cc2)cc1` belongs 6.60; to `O=c1cc(NCCCNCc2cc(F)cc(C(F)(F)F)c2)[nH]c2ccccc12`, 5.92.
As for `CCN(CC)CCn1c(=N)n(CC(O)c2ccc(Cl)c(Cl)c2)c2ccccc21` (configuration not stated), the pIC50 is 6.10.
The compound `CCC(C)CNC(=O)CN1CN(c2ccccc2)C2(CCN(C(=O)c3ccc(Br)cc3)CC2)C1=O` (configuration not stated) had a pIC50 of 5.97.
Take `Cc1cc(NN=Cc2ccc([N+](=O)[O-])cc2)c2ccc(F)cc2n1`: the pIC50 is 6.05.
To `CCOc1cc(Cc2cnc(N)nc2N)cc(OCC)c1OCCCCC(=O)OC` belongs 7.40; to `Cc1ccc2nc(-c3ccccc3)cc(NN=Cc3cccnc3)c2c1`, 6.16; to `Cc1cc(NC2CCCC2)nc(Nc2ccccc2C)n1`, 5.87.
To `Clc1ccc(CNc2nc(NCCc3cnc[nH]3)nc(N3CCCC4CCCCC43)n2)cc1` (configuration not stated) belongs 6.23; to `CC1CCCCN1CCCNc1ncc2c(-c3ccc(NC(=O)Nc4cc(C(F)(F)F)ccc4F)c(F)c3)nn(C)c2n1` (configuration not stated), 6.59.
The same measure for `Cc1ccc(Oc2ncccc2C(=O)Nc2cccc3cccnc23)c(C)c1`: 6.66; for `COc1ccc(-c2ccccc2OCCCNc2nc(NCCc3ccc(O)cc3)nc(N3CCNCC3)n2)cc1`: 6.10.
The compound `CCCCCCCC1=NN2C(=N)C(=Cc3cc(Br)c(OCc4ccc(F)cc4)c(OCC)c3)C(=O)N=C2S1` gave a pIC50 of 5.98.
The same measure for `Cc1cccc2[nH]c(-c3cccc(-c4cccc(CNCCCN5CCCC5=O)c4)c3)nc12`: 6.13; for `CC(C)c1ccc(NC(=O)NCC2CCCN(CCCCCNC(=O)/C=C/c3ccc(Cl)c(Cl)c3)C2)cc1` (configuration not stated): 6.09.
In turn, `CN(CCC1CCN(C(=O)/C=C/c2ccc(Cl)c(Cl)c2)CC1)C1CCC(c2c[nH]c3ccccc23)CC1` (configuration not stated) showed a pIC50 of 6.11.
The same measure for `COC(=O)c1cccc(CN(CCC(O)(C(F)(F)F)C(F)(F)F)C(=O)CC2CCCC2)c1`: 6.04.

A word on the pIC50: it is the negative decadic logarithm of the IC50, by convention in mol/L.
